Assays:
α-glucosidase = α-glucosidase (Saccharomyces cerevisiae, UniProt P53341); format: biochemical; settings: concentrations 0.01 to 0.25 mg/ml, FIG. 7
Method: Next, 20 μl of P-NPG (5 mM) was added as a substrate and further incubated at 37° C. for 20 minutes. This reaction was stopped by adding 50 μl of Na2CO3 (0.1 M). […] Each experiment was performed three times. An inhibition rate (%) was evaluated using the following equation (inhibition (%)=[1−(sample/control)]×100).

[1] = system: 12-day-old cortical cell cultures; experiment: Nerve cell protection against excitotoxin damage, MTT assay; format: cell-based; settings: for Cell viability from excitotoxin-induced neuron toxicity: cortical cell cultures pre-treated 1 hour, then glutamate, AMPA, NMDA, kinate, MTT after one day
Method: Nerve cell protection ability was evaluated using Quinazole and MDPX-V2021 prepared according to Example 1 and MK-801 prepared according to Comparative Example 3.
To evaluate the neuroprotective activity of Quinazole, MDPX-V2021 and MK-801 against damage due to excitotoxin, each of the samples was dissolved in ethanol (final concentration, 0.1%), and a 12-day-old cortical cell cultures were used. The cultures were respectively pre-treated with the samples for 1 hour and then exposed to 20 μM glutamate, 80 μM α-amino-3-hydroxy-5-methyl-4-isoxazolepropionic acid, 40 μM N-Methyl-D-aspartic acid and 200 μM kinate. Next, each of the cultures was additionally cultured in neurobasal medium for one day, and the survival rate of the nerve cells was measured by MTT assay.
MTT tetrazolium (1 mg/mL) was added to neurons grown in 96-well plate, and then cultured at 37° C. for 1 hour. The reaction medium was carefully sucked, and then DMSO was added thereto to dissolve the blue formazan product. The survival rate of the nerve cells was estimated by quantifying an available formazan at 540 nm using a multi-mode plate reader. The test was repeated 3 times, and the cell viability was calculated according to 100×(excitotoxin OD+sample treatment-excitotoxin treatment OD)/(control OD-excitotoxin treatment OD).

Chain of α-glucosidase (P53341 whole entry, looked up): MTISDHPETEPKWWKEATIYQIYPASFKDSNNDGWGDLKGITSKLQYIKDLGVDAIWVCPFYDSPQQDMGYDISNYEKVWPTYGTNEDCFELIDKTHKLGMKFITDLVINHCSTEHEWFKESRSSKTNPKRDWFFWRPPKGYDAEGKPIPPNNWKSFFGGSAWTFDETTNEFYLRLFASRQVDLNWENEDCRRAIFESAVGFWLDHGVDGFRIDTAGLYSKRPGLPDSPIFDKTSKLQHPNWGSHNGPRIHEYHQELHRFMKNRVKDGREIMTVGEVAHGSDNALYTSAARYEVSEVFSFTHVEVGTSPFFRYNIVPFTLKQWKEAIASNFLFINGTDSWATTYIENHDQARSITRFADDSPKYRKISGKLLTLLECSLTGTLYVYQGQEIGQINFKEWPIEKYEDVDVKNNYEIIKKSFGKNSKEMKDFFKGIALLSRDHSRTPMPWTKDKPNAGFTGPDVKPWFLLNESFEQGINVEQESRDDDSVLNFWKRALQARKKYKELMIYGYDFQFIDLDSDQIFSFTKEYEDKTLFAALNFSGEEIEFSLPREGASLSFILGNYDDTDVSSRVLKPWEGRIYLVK

Row | Compound | inhibitory activity against α-glucosidase (in words) (α-glucosidase) | Cell viability from excitotoxin-induced neuron toxicity [1] | cell viability compared with Quinazole (in words) ([1]; sample concentration range of 0.1 to 50 μM, FIG. 8)
1 | COc1ccc(-n2cnc3ccc(OC)cc3c2=O)c(COC(C)(C)C)c1 [MDPX-V2021, 3-{2-[(tert-butoxy)methyl]-4-methoxyphenyl}-6-methoxy-3,4-dihydroquinazolin-4-one] | has inhibitory activity against α-glucosidase | 84.083 ± 3.482% | significantly higher
2 | CC12NC(Cc3ccccc31)c1ccccc12 (centres unmarked) [MK-801, reference compound] |  | 78.830 ± 0.567% | 
3 | COc1ccc(-n2cnc3ccc(OC)cc3c2=O)c(CO)c1 [Quinazol A, Dictyoquinazol A, reference compound] |  | 68.910 ± 1.406% | 
